These results are taken from patent publication US8604061B2, “2-aminooxazolines as TAAR1 ligands” (Hoffmann-La Roche Inc., priority 2007, dated 2013).

The target in one assay is TAAR1 (Mus musculus, UniProt Q923Y8). Put plainly: TAAR1 radioligand binding, membranes of stably transfected HEK293 cells (mouse).
Details: not given
As to the method:
For the construction of expression plasmids the coding sequences of human, rat and mouse TAAR 1 were amplified from genomic DNA essentially as described by Lindemann et al.. The Expand High Fidelity PCR System (Roche Diagnostics) was used with 1.5 mM Mg^2+ and purified PCR products were cloned into pCR2.1-TOPO cloning vector (Invitrogen) following the instructions of the manufacturer. PCR products were subcloned into the pIRESneo2 vector (BD Clontech, Palo Alto, Calif.), and expression vectors were sequence verified before introduction in cell lines.
HEK293 cells (ATCC #CRL-1573) were cultured essentially as described Lindemann et al. (2005). For the generation of stably transfected cell lines HEK293 cells were transfected with the pIRESneo2 expression plasmids containing the TAAR coding sequences (described above) with Lipofectamine 2000 (Invitrogen) according to the instructions of the manufacturer, and 24 hrs post transfection the culture medium was supplemented with 1 mg/ml G418 (Sigma, Buchs, Switzerland). After a culture period of about 10 d clones were isolated, expanded and tested for responsiveness to trace amines (all compounds purchased from Sigma) with the cAMP Biotrak Enzyme immunoassay (EIA) System (Amersham) following the non-acetylation EIA procedure provided by the manufacturer.
Cells at confluence were rinsed with ice-cold phosphate buffered saline without Ca^2+ and Mg^2+ containing 10 mM EDTA and pelleted by centrifugation at 1000 rpm for 5 min at 4° C. The pellet was then washed twice with ice-cold phosphate buffered saline and cell pellet was frozen immediately by immersion in liquid nitrogen and stored until use at −80° C. Cell pellet was then suspended in 20 ml HEPES-NaOH (20 mM), pH 7.4 containing 10 mM EDTA, and homogenized with a Polytron (PT 3000, Kinematica) at 10,000 rpm for 10 s. The homogenate was centrifuged at 48,000×g for 30 min at 4° C. and the pellet resuspended in 20 ml HEPES-NaOH (20 mM), pH 7.4 containing 0.1 mM EDTA (buffer A), and homogenized with a Polytron at 10,000 rpm for 10 s. The homogenate was then centrifuged at 48,000×g for 30 min at 4° C. and the pellet resuspended in 20 ml buffer A, and homogenized with a Polytron at 10,000 rpm for 10 s. Protein concentration was determined by the method of Pierce (Rockford, Ill.). The homogenate was then centrifuged at 48,000×g for 10 min at 4° C., resuspended in HEPES-NaOH (20 mM), pH 7.0 including MgCl2 (10 mM) and […] homogenized with a Polytron at 10,000 rpm for 10 s.
Binding assay was performed at 4° C. in a final volume of 1 ml, and with an incubation time of 30 min. […] Non-specific binding was defined as the amount of [^3H]-rac-2-(1,2,3,4-tetrahydro-1-naphthyl)-2-imidazoline bound in the presence of the appropriate unlabelled ligand (10 μM). Competing ligands were tested in a wide range of concentrations (10 pM-30 μM). […] Each experiment was performed in duplicate. All incubations were terminated by rapid filtration through UniFilter-96 plates (Packard Instrument Company) and glass filter GF/C, pre-soaked for at least 2 h in polyethylenimine 0.3%, and using a Filtermate 96 Cell Harvester (Packard Instrument Company). The tubes and filters were then washed 3 times with 1 ml aliquots of cold buffer B. Filters were not dried and soaked in Ultima gold (45 μl/well, Packard Instrument Company) and bound radioactivity was counted by a TopCount Microplate Scintillation Counter (Packard Instrument Company).
`Cc1cc(C2(C)COC(N)=N2)ccc1Cl` (racemic) [Example 263, (RS)-4-(4-Chloro-3-methyl-phenyl)-4-methyl-4,5-dihydro-oxazol-2-ylamine] had a Ki of 0.0023 µM.
For the compound `CC1(c2cc(F)c(Cl)cc2F)COC(N)=N1` (racemic) [Example 271, (RS)-4-Methyl-4-(4-chloro-2,5-difluoro-phenyl)-4,5-dihydro-oxazol-2-ylamine], the Ki was determined as 0.0013 µM.
Still for that read-out and setting: the value for `Cc1ccc(Cl)cc1C1COC(N)=N1` (racemic) [Example 272, (RS)-4-(5-Chloro-2-methyl-phenyl)-4,5-dihydro-oxazol-2-ylamine] was 0.0013 µM; that for `NC1=NC(c2ccc(Br)cc2Cl)CO1` (racemic) [Example 291, (RS)-4-(4-Bromo-2-chloro-phenyl)-4,5-dihydro-oxazol-2-ylamine] was 0.0008 µM.
Same read-out and setting: the same measure for `CC1(c2cc(Cl)ccc2Cl)COC(N)=N1` (racemic) [Example 299, (RS)-4-(2,5-Dichloro-phenyl)-4-methyl-4,5-dihydro-oxazol-2-ylamine]: 0.0042 µM.
On the same count and under the same terms, the value for `NC1=NC(c2ccc(Br)cc2C(F)(F)F)CO1` (racemic) [Example 302, (RS)-4-(4-Bromo-2-trifluoromethyl-phenyl)-4,5-dihydro-oxazol-2-ylamine] was 0.0017 µM; that for `NC1=NC(c2ccc(Br)c(Cl)c2)CO1` (racemic) [Example 326, (RS)-4-(4-Bromo-3-chloro-phenyl)-4,5-dihydro-oxazol-2-ylamine] was 0.001 µM; that for `Cc1cc(F)ccc1C1COC(N)=N1` (racemic) [Example 337, (RS)-4-(4-Fluoro-2-methyl-phenyl)-4,5-dihydro-oxazol-2-ylamine] was 0.0034 µM.
`CCc1cc(Cl)ccc1C1COC(N)=N1` (racemic) [Example 344, (RS)-4-(4-Chloro-2-ethyl-phenyl)-4,5-dihydro-oxazol-2-ylamine] showed a Ki of 0.0025 µM.
Same read-out and setting: the same measure for `NC1=NC(c2ccc(Br)cc2F)CO1` (racemic) [Example 349, (RS)-4-(4-Bromo-2-fluoro-phenyl)-4,5-dihydro-oxazol-2-ylamine]: 0.0023 µM.
`Cc1ccc(C2COC(N)=N2)cc1Cl` (racemic) [Example 351, (RS)-4-(3-Chloro-4-methyl-phenyl)-4,5-dihydro-oxazol-2-ylamine] gave a Ki of 0.0024 µM.
Same read-out and setting: the same measure for `NC1=NC(c2ccc(Cl)cc2C2CC2)CO1` (racemic) [Example 359, (RS)-4-(4-Chloro-2-cyclopropyl-phenyl)-4,5-dihydro-oxazol-2-ylamine]: 0.0021 µM; for `Cc1c(F)cccc1C1COC(N)=N1` (racemic) [Example 365, (RS)-4-(3-Fluoro-2-methyl-phenyl)-4,5-dihydro-oxazol-2-ylamine]: 0.0029 µM.
As for `NC1=NC(c2cccc(F)c2C(F)(F)F)CO1` (racemic) [Example 371, (RS)-4-(3-Fluoro-2-trifluoromethyl-phenyl)-4,5-dihydro-oxazol-2-ylamine], the Ki amounted to 0.0096 µM.
`NC1=N[C@@H](c2ccc(F)cc2F)CO1` [37b (S), (S)-4-(2,4-Difluoro-phenyl)-4,5-dihydro-oxazol-2-ylamine] registered a Ki of 0.0087 µM.
For `Cc1ccccc1[C@H]1COC(N)=N1` [39a (S), (S)-4-o-Tolyl-4,5-dihydro-oxazol-2-ylamine], the Ki came out at 0.0025 µM.
`NC1=N[C@@H](c2ccc(-c3ccccc3)cc2)CO1` [Example 21 (S), (S)-4-Biphenyl-4-yl-4,5-dihydro-oxazol-2-ylamine]: the Ki was determined as 0.0008 µM.

The same assay, now with this note: mouse/rat; cell not marked 'rat'; radioligand [3H]-rac-2-(1,2,3,4-tetrahydro-1-naphthyl)-2-imidazoline, 4° C.; read-out: Ki (μM) mouse/rat.
Regarding `CC1(c2ccc(F)c(F)c2F)COC(N)=N1` (racemic) [Example 269, (RS)-4-Methyl-4-(2,3,4-trifluoro-phenyl)-4,5-dihydro-oxazol-2-ylamine], the Ki was found to be 0.0083 µM.
Same read-out and setting: the value for `CC1(c2cc(F)c(F)c(F)c2)COC(N)=N1` (racemic) [Example 273, (RS)-4-Methyl-4-(3,4,5-trifluoro-phenyl)-4,5-dihydro-oxazol-2-ylamine] was 0.0095 µM.
Turning to `Cc1cc(C2(C)COC(N)=N2)c(F)cc1Cl` (racemic) [Example 274, (RS)-4-(4-Chloro-2-fluoro-5-methyl-phenyl)-4-methyl-4,5-dihydro-oxazol-2-ylamine], the Ki stood at 0.0011 µM.
On the same count and under the same terms, the same measure for `CC1(c2ccc(Cl)cc2Cl)COC(N)=N1` (racemic) [Example 294, (RS)-4-(2,4-Dichloro-phenyl)-4-methyl-4,5-dihydro-oxazol-2-ylamine]: 0.0038 µM; for `NC1=NC(CCC2CCCCC2)CO1` (stereo in doubt) [Example 332, (S)-4-(2-Cyclohexyl-ethyl)-4,5-dihydro-oxazol-2-ylamine]: 0.0061 µM.
On the same count and under the same terms, the value for `NC1=N[C@H](CCc2ccccc2)CO1` [80 (R), (R)-4-phenethyl-4,5-dihydro-oxazol-2-ylamine] was 0.0083 µM; that for `C[C@H](C[C@H]1COC(N)=N1)c1ccccc1` [82 (S, R), (S)-4-((R)-2-Phenyl-propyl)-4,5-dihydro-oxazol-2-ylamine] was 0.0016 µM; that for `C[C@@H](C[C@H]1COC(N)=N1)c1ccccc1` [82 (S, S), (S)-4-((S)-2-phenyl-propyl)-4,5-dihydro-oxazol-2-ylamine] was 0.008 µM.
`NC1=N[C@@H](c2ccccc2Cl)CO1` [Example 4, (S)-4-(2-Chloro-phenyl)-4,5-dihydro-oxazol-2-ylamine]: the Ki is 0.0012 µM.
Still for that read-out and setting: the value for `NC1=N[C@@H](c2cccc(F)c2F)CO1` [Example 9, (S)-4-(2,3-Difluoro-phenyl)-4,5-dihydro-oxazol-2-ylamine] was 0.0034 µM; that for `NC1=N[C@@H](c2ccc(F)c(Br)c2F)CO1` [Example 29 (S), (S)-4-(3-Bromo-2,4-difluoro-phenyl)-4,5-dihydro-oxazol-2-ylamine] was 0.0054 µM; that for `NC1=N[C@@H](Cc2cccc3ccccc23)CO1` [Example 48, (S)-4-Naphthalen-1-ylmethyl-4,5-dihydro-oxazol-2-ylamine] was 0.0002 µM.
Same read-out and setting: the same measure for `NC1=N[C@@H](Cc2ccc3ccccc3c2)CO1` [Example 49, (S)-4-Naphthalen-2-ylmethyl-4,5-dihydro-oxazol-2-ylamine]: 0.0054 µM; for `NC1=N[C@@H](Cc2ccccc2Cl)CO1` [Example 60, (S)-4-(2-Chloro-benzyl)-4,5-dihydro-oxazol-2-ylamine]: 0.0047 µM.
Still for that read-out and setting: the same measure for `NC1=N[C@@H](Cc2cccc(C(F)(F)F)c2)CO1` [Example 63, (S)-4-(3-Trifluoromethyl-benzyl)-4,5-dihydro-oxazol-2-ylamine]: 0.0086 µM.
In the case of `NC1=N[C@@H](CCc2ccccc2)CO1` [Example 80 (S), (S)-4-Phenethyl-4,5-dihydro-oxazol-2-ylamine], the Ki came out at 0.0008 µM.
The same measure, in the same setting: the same measure for `C[C@]1(CCc2ccccc2)COC(N)=N1` [Example 81 (S), (S)-4-Methyl-4-phenethyl-4,5-dihydro-oxazol-2-ylamine]: 0.0064 µM; for `NC1=N[C@@H](CCc2ccc(F)cc2)CO1` [Example 85, (S)-4-[2-(4-Fluoro-phenyl)-ethyl]-4,5-dihydro-oxazol-2-ylamine]: 0.0011 µM.
Still for that read-out and setting: the same measure for `COc1cc(CC[C@H]2COC(N)=N2)ccc1F` [Example 86, (S)-4-[2-(4-Fluoro-3-methoxy-phenyl)-ethyl]-4,5-dihydro-oxazol-2-ylamine]: 0.0008 µM; for `NC1=N[C@@H](CCc2ccc(F)cc2F)CO1` [Example 88]: 0.001 µM; for `NC1=N[C@@H](CCc2ccc(F)c(F)c2)CO1` [Example 89, (S)-4-[2-(3,4-Difluoro-phenyl)-ethyl]-4,5-dihydro-oxazol-2-ylamine]: 0.0013 µM.
With `NC1=N[C@@H](c2ccc(Cl)c(Cl)c2)CO1` [Example 91, (S)-4-(3,4-Dichloro-phenyl)-4,5-dihydro-oxazol-2-ylamine], the Ki stood at 0.0006 µM.
